Test results taken from patent US12319652B2, “Salts and solid forms of (R)-1-(5-methoxy-1H-indol-1-yl)-N,N-dimethylpropan-2-amine” (priority 2021, dated 2025).
Where two headings read alike, the source gives them in different places.

Assays:
[1] = Amorphous forms and thermal study (glass temperature Tg by DSC/TGA); type: physicochemical
[2] = type: physicochemical
Description: Both samples were maintained at 75% RH at 40° C. and monitored by HPLC at time points t=1 h, 3 h, 24 h, 48 h, 7 d, 2 w, 3 w, 4 w and 5 w.
Under the conditions evaluated during this study, XRPD analysis could not be performed as compound 1 Fumarate turned to an oily residue within 3 h under both conditions.
[…] Both samples were maintained under equilibrium humidity of 75% RH at 40° C. and monitored, initially at hourly and then weekly time points.

[3] = Solubility determinations in SIF buffers (FaSSIF, FeSSIF, FaSSGF); type: physicochemical; details: 37° C. up to 24 h
Description: At this stage ca. 1 g of each front-runner salt form was prepared. Salt forms that offered significant solubility and stability advantages over the non-ionized API were prioritized. […] Scale Up
The solubility of the salts below was determined in FaSSIF, FeSSIF and FaSSGF by reference to the calibration curve of amorphous compound 1.
Separate portions of compound 1 were weighed out into aluminum boats and were charged to the relevant volumetric flasks. Solutions were made to volume with 1 to 1 (v/v) acetonitrile/purified water to give calibrants of known API concentrations and analyzed by HPLC, suitable to determine the concentration of compound 1 free base in the SIF buffer solubility study.
Each sample (150 mg) was suspended in the relevant SIF buffer (5.0 ml), to give a concentration of 30 mg/ml and maintain at 37° C. for 24 h. The pH was adjusted using 1 M HCl or 1 M NaOH, to ensure that the suspension remains in range.
Sample (1 ml) of the well-stirred representative suspensions was obtained at 1 h, 3 h, 6 h and 24 h and the pH was recorded. The pH of the bulk suspension was re-adjusted when necessary. The obtained sample from each vial was centrifuged, and the supernatant was analysed by HPLC (note, the analyte was diluted, when outside of the calibration range); XRPD analysis was performed on the wet sample pellet for evidence of form change, as well as on the oven-dried pellet (undervacuum at 40° C.).

[4] = In-situ hydration evaluation of monofumarate Form A; type: physicochemical; details: ambient
Description: An XRPD specimen of monofumarate Form A was prepared and treated with sequential aliquots of water.
An XRPD plate was made up with a small amount of compound 1·Fumarate (batch 1, 5 mg, 1.0 wt) and analysed by XRPD on the 9-minute method and labelled as T=0. After the run, the sample was charged with purified water (10 μL, 2.0 vol) and analysed again by XRPD, labelled as T=9. This was repeated twice more for T=18 and T=27. The sample was left to stand under ambient conditions (15-25° C., ambient humidity, and pressure) in the fume hood for 33 h (FIG. 23).

[5] = Dynamic vapor sorption (DVS); type: physicochemical; details: for DVS isotherm type / hygroscopicity: 0 to 90 to 0% RH; for DVS mass change at 90.0% RH / DVS mass change at 0.0% RH / DVS mass change at 5.0% RH / DVS mass change at 10.0% RH / DVS mass change at 15.0% RH / DVS mass change at 20.0% RH / DVS mass change at 25.0% RH / DVS mass change at 30.0% RH / DVS mass change at 40.0% RH / DVS mass change at 50.0% RH / DVS mass change at 60.0% RH / DVS mass change at 70.0% RH / DVS mass change at 80.0% RH: dm/dt <0.002%
Procedure, shortened: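 At 25 °C, 20 to 50 mg sample was dried at 0% RH for 60 minutes, then humidity raised 0-30% in 5% steps and 30-90% in 10% steps, with matching desorption back to 0%. Equilibrium set at dm/dt 0.002%/min; amorphous material was run with fixed 1 hour steps.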

SMILES: COc1ccc2c(ccn2C[C@@H](C)N(C)C)c1.O=C(O)/C=C/C(=O)O [amorphous compound 1 fumarate]
- DSC measurements, Endset ([1]; DSC thermal event Tg): 34.30 °C
- DSC measurements, Integral ([1]; DSC thermal event Tg): −1.73 Jg^−1
- DSC measurements, Onset ([1]; DSC thermal event Tg): 21.14 °C
- DSC measurements, Peak ([1]; DSC thermal event Tg): 29.67 °C
- Form Assignment ([1]; heated up past the melt event on a hot stage microscope): Amorphous
- HPLC (% area) ([2]; input batch 1 before storage at 75% RH/40° C.): 93.84 % area
- HPLC (% area) ([2]; open-necked wide vial, 75% RH/40° C., t = 2 w): 91.24 % area
- HPLC (% area) ([2]; open-necked wide vial, 75% RH/40° C., t = 3 w): 94.17 % area
- HPLC (% area) ([2]; open-necked wide vial, 75% RH/40° C., t = 4 w): 91.86 % area
- HPLC (% area) ([2]; open-necked wide vial, 75% RH/40° C., t = 5 w): 91.57 % area
- HPLC (% area) ([2]; sealed PK0056 electrostatic bags, 75% RH/40° C., t = 2 w): 91.21 % area
- HPLC (% area) ([2]; sealed PK0056 electrostatic bags, 75% RH/40° C., t = 3 w): 91.94 % area
- HPLC (% area) ([2]; sealed PK0056 electrostatic bags, 75% RH/40° C., t = 4 w): 90.9 % area
- HPLC (% area) ([2]; sealed PK0056 electrostatic bags, 75% RH/40° C., t = 5 w): 91.3 % area

SMILES: COc1ccc2c(ccn2C[C@@H](C)N(C)C)c1.O=C(O)/C=C/C(=O)O
- Solubility in FaSSGF [3]: Solubility in SIF buffers: Soluble in FaSSIF, FeSSIF and FaSSGF at 37°
- Solubility in FaSSIF [3]: Solubility in SIF buffers: Soluble in FaSSIF, FeSSIF and FaSSGF at 37°
- Solubility in FeSSIF [3]: Solubility in SIF buffers: Soluble in FaSSIF, FeSSIF and FaSSGF at 37°
- Form change on treatment with sequential aliquots of water (XRPD) [4]: conversion into its amorphous form
- RH above which pronounced mono, multilayer sorption and probable deliquescence occurred [5]: > 80 % RH
- DVS isotherm type / hygroscopicity ([5]; listed as Form A): DVS mass per unit time equlibrated @ dm/dt (0.0002%/min) on Form A was performed (specimen was deliquescent by DVS).
- DVS isotherm type / hygroscopicity ([5]; listed as compound 1 fumarate crystalline polymorphic Form A): deliquescent type isotherm
- DVS weight gain at 70% RH ([5]; 70% RH (printed 70° RH in Example 8)): ca. 1 % w/w
- DVS mass change at 90.0% RH ([5]; desorption step (second 90.0 entry)): 9.440%
- DVS mass change at 0.0% RH ([5]; desorption step): 0.085%
- DVS mass change at 5.0% RH ([5]; desorption step): 0.113%
- DVS mass change at 10.0% RH ([5]; desorption step): 0.141%
- DVS mass change at 15.0% RH ([5]; desorption step): 0.169%
- DVS mass change at 20.0% RH ([5]; desorption step): 0.201%
- DVS mass change at 25.0% RH ([5]; desorption step): 0.238%
- DVS mass change at 30.0% RH ([5]; desorption step): 0.279%
- DVS mass change at 40.0% RH ([5]; desorption step): 0.374%
- DVS mass change at 50.0% RH ([5]; desorption step): 0.476%
- DVS mass change at 60.0% RH ([5]; desorption step): 0.619%
- DVS mass change at 70.0% RH ([5]; desorption step): 0.885%
- DVS mass change at 80.0% RH ([5]; desorption step): 2.087%
- DVS mass change at 0.0% RH ([5]; sorption step): 0.00%
- DVS mass change at 5.0% RH ([5]; sorption step): 0.021%
- DVS mass change at 10.0% RH ([5]; sorption step): 0.047%
- DVS mass change at 15.0% RH ([5]; sorption step): 0.068%
- DVS mass change at 20.0% RH ([5]; sorption step): 0.088%
- DVS mass change at 25.0% RH ([5]; sorption step): 0.107%
- DVS mass change at 30.0% RH ([5]; sorption step): 0.125%
- DVS mass change at 40.0% RH ([5]; sorption step): 0.173%
- DVS mass change at 50.0% RH ([5]; sorption step): 0.242%
- DVS mass change at 60.0% RH ([5]; sorption step): 0.366%
- DVS mass change at 70.0% RH ([5]; sorption step): 0.590%
- DVS mass change at 80.0% RH ([5]; sorption step): 0.174%
- DVS mass change at 90.0% RH ([5]; sorption step): 9.440%
